Blank lines part the entries; values can stand above or below the compound they belong to.
How the values were obtained:
[1] = system: LDL; assay: Protection against LDL oxidation by copper (conjugated diene formation); format: biochemical; settings: 10^−4M
Method: Unless otherwise indicated, the reagents were from Sigma (St Quentin, France). LDL were prepared according to the method described by Lebeau et al. (Lebeau, Furman et al. 2000).
The solutions of test compounds were prepared at 10^−2 M concentration in bicarbonate buffer (pH 9) and diluted in PBS to obtain final concentrations ranging from 0.1 to 100 μM
Prior to oxidation, EDTA was removed from the LDL preparation by dialysis. Oxidation then took place at 30° C. by adding 100 μl of 16.6 μM CuSO4 solution to 160 μL of LDL (125 μg protein/ml) and 20 μl of a test compound solution. The formation of dienes, the species under observation, was followed by measuring optical density at 232 nm in the samples treated with the compounds in the presence or absence of copper. Optical density at 232 nm was measured every 10 minutes for 8 hours in a thermostated spectrophotometer (Tecan Ultra 380). The analyses were performed in triplicate. The compounds were considered to have antioxidant activity when they induced a longer lag phase and reduced the rate of oxidation and the amount of dienes formed in comparison with the control sample.

[2] = molecular target: T1, PPARα (Homo sapiens, UniProt Q07869); assay: PPARα/Gal4 transactivation system in COS-7 cells; format: cell-based; settings: 24 hours
T1 construct: expressed in transfected cells; host or cells: COS-7 cells
T1 sequence (Q07869 239-466 limits assumed): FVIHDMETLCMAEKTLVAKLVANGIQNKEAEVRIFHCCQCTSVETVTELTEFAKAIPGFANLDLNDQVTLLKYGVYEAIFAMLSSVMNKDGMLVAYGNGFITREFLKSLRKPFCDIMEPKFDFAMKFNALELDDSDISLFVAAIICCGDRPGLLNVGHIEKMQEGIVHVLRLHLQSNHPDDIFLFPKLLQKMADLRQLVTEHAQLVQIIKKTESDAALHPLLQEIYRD
Method: (§1) COS-7 cells were incubated with different concentrations of the inventive compounds for 24 hours. The results are expressed as the induction factor (ratio of luminescent signal obtained with the compound and that observed without the compound) after the different treatments.
(§2) PPAR activation was tested in vitro in RK13 epitheloid or COS-7 cell lines by measuring the transcriptional activity of chimeras composed of the DNA binding domain of the yeast gal4 transcription factor and the ligand binding domain of the different PPARs. These latter results were then confirmed in cell lines according to the following protocols:
(§3) RK13 cells were from ECACC (Porton Down, UK), COS-7 cells were from the ATCC (American Type Culture Collection) and were grown in DMEM medium supplemented with 10% (VN) fetal calf serum, 100 U/ml penicillin (Gibco, Paisley, UK) and 2 mM L-glutamine (Gibco, Paisley, UK). The culture medium was changed every two days. Cells were kept at 37° C. in a humidified 95% air/5% CO2 atmosphere.
(§4) The plasmids pG5TkpGL3, pRL-CMV, pGal4-hPPARα, pGal4-hPPARγ, pGal4-hPPARδ and pGal4-φ have been described by Raspe, Madsen et al. (1999). The pGal4-mPPARα, pGal4-hPPARγ and pGal4-hPPARδ constructs were obtained by cloning into the pGal4-φ vector of PCR-amplified DNA fragments corresponding to the DEF domains of the human PPARα, PPARγ and PPARδ nuclear receptors.
(§5) RK13 cells were seeded in 24-well culture dishes at 5×10^4 cells/well, COS-7 cells in 96-well culture dishes at 5×10^4 cells/well and transfected for 2 hours with the reporter plasmid pG5TkpGL3 (50 ng/well), the expression vectors pGal4-φ, pGal4-mPPARα, pGal4-hPPARα, pGal4-hPPARγ, pGal4-hPPARδ (100 ng/well) and the transfection efficiency control vector pRL-CMV (1 ng/well) according to the previously described protocol (Raspe, Madsen et al. 1999), then incubated for 36 hours with the test compounds. At the end of the experiment, the cells were lysed (Gibco, Paisley, UK) and luciferase activity was determined with a Dual-Luciferase™ Reporter Assay System kit (Promega, Madison, Wis., USA) for RK13 cells and Steady Glow Luciferase (Promega) for COS-7 cells according to the supplier's instructions as previously described. The protein content of the cell extracts was then measured with the Bio-Rad Protein Assay (Bio-Rad, Munich, Germany) as directed by the supplier.

[3] = molecular target: T2, PPARγ (Homo sapiens, UniProt P37231); assay: PPARγ/Gal4 transactivation system in COS-7 cells; format: cell-based; settings: 24 hours
T2 construct: expressed in transfected cells; host or cells: COS-7 cells
T2 sequence (P37231 238-503 limits assumed): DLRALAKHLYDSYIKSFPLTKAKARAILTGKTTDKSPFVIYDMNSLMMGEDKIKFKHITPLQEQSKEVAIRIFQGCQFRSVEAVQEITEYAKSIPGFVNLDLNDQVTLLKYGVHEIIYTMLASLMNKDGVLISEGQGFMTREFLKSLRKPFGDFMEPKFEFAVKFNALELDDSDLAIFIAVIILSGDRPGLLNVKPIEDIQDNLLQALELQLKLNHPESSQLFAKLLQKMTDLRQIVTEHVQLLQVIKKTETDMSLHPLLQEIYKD
Method: as §1, §2, §3, §4, §5

[4] = molecular target: T3, PPARδ (Homo sapiens, UniProt Q03181); assay: PPARδ/Gal4 transactivation system in COS-7 cells; format: cell-based; settings: 24 hours
T3 construct: expressed in transfected cells; host or cells: COS-7 cells
T3 sequence (Q03181 211-439 limits assumed): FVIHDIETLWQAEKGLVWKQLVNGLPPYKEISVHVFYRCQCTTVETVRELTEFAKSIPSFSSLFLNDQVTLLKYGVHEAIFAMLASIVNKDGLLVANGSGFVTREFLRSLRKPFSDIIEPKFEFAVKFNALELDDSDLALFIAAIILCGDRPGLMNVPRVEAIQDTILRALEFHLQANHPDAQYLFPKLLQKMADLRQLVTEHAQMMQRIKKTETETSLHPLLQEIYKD
Method: as §1, §2, §3, §4, §5

[5] = system: naive CD4+ T cells; assay: Mixed Lymphocyte Reaction (MLR), BrdU incorporation; format: cell-based
Method: FIG. 23 illustrates a Mixed Lymphocyte Reaction (MLR) carried out in the presence of increasing amounts of dendritic cells treated or not with compound 31 and incubated with naive CD4+ T cells for seven days. T cell proliferation was determined by BrdU (bromodeoxyuridine) incorporation.
For this experiment, increasing amounts of mature dendritic cells (treated or not with the compound) were incubated with a fixed amount of naive CD4+ T cells from another donor. After a 5-day incubation, BrdU (bromodeoxyuridine) was added for 24 hours and the incorporation thereof in T cells was determined by ELISA with anti-BrdU antibodies coupled to chemiluminescent tags.

[6] = molecular target: T1, PPARα; assay: PPARα/Gal4 transactivation system in RK13 cells; format: cell-based; settings: 24 hours
Method: (§6) RK13 cells were incubated with the compound 2 at concentrations comprised between 0.01 and 10 μM for 24 hours. The results are expressed as the induction factor (ratio of luminescent signal obtained with the compound and that observed without the compound) after the different treatments.
as §2, with “protocols: […]” for “protocols:”
as §5, with “At the end of the experiment, the cells were lysed (Gibco, Paisley, UK) and luciferase activity was determined with a Dual-Luciferase™ Reporter Assay System kit (Promega, Madison, Wis., USA) for RK13 cells and Steady Glow Luciferase (Promega) for COS-7 cells according to the supplier's instructions as previously described.” left out

[7] = molecular target: T2, PPARγ; assay: PPARγ/Gal4 transactivation system in RK13 cells; format: cell-based; settings: 24 hours
Method: as §6, §2, §3, §4, §5

[8] = system: Apo E2/E2 transgenic mice; assay: Effects on triglyceride and cholesterol metabolism in Apo E2/E2 transgenic mice; format: in vivo; settings: gavage, 50 mg/kg/day, seven days
Method: FIGS. 19a, 19b, 19c, 19d, 20a, 20b, 20c and 20d illustrate the effects of treatment with compound 2 (Cpd2), compound 13 (Cpd13), compound 33 (Cpd33) and compound 39 (Cpd39) on triglyceride and cholesterol metabolism in Apo E2/E2 transgenic mice treated by gavage with the compound at a dose of 50 mg/kg/day, for seven days.
Apo E2/E2 transgenic mice were housed in a 12-hour light/dark cycle at a constant temperature of 20±3° C. After a 1-week acclimatization period, the mice were weighed and divided into groups of 6 animals selected such that the distribution of body weight was uniform. The test compounds were suspended in carboxymethylcellulose and administered by gastric lavage at the indicated doses, once a day for 7 days. Animals had access to food and water ad libitum. At the end of the experiments, animals were weighed and sacrificed under anesthesia. Blood was collected on EDTA. Plasma was isolated by centrifugation at 3000 rpm for 20 minutes. Liver samples were removed and stored frozen in liquid nitrogen for later analysis.
Lipid concentrations in plasma (total cholesterol and free cholesterol, triglycerides and phospholipids) were determined by a colorimetric assay (Boehringer, Mannheim, Germany) according to the supplier's instructions. Plasma concentrations of apolipoproteins AI, AII and CIII were determined as previously described (Raspe et al. 1999, Asset G et al., Lipids, 1999).

Induction factor ([2]; 0.001 μM): 1.10
Induction factor ([2]; 0.003 μM): 1.09
Induction factor ([2]; 0.01 μM): 1.23
Induction factor ([2]; 0.03 μM): 1.23
Induction factor ([2]; 0.1 μM): 1.23
Induction factor ([2]; 0.3 μM): 1.73
Induction factor ([2]; 1 μM): 1.88
Induction factor ([2]; 3 μM): 3.69
Induction factor ([2]; 10 μM): 6.03
Induction factor ([3]; 0.001 μM): 1.44
Induction factor ([3]; 0.003 μM): 2.19
Induction factor ([3]; 0.01 μM): 3.06
Induction factor ([3]; 0.03 μM): 4.87
Induction factor ([3]; 0.1 μM): 5.99
Induction factor ([3]; 0.3 μM): 6.96
Induction factor ([3]; 1 μM): 7.05
Induction factor ([3]; 3 μM): 7.79
Induction factor ([4]; 0.001 μM): 1.00
Induction factor ([4]; 0.003 μM): 1.05
Induction factor ([4]; 0.01 μM): 1.09
Induction factor ([4]; 0.03 μM): 1.16
Induction factor ([4]; 0.1 μM): 1.35
Induction factor ([4]; 0.3 μM): 2.67
Induction factor ([4]; 1 μM): 4.12
Induction factor ([4]; 3 μM): 10.82
Induction factor ([4]; 10 μM): 11.70
Structure (SMILES): Cc1cc(/C=C/C(=O)c2c(C)c(C)c(C)c(C)c2C)cc(C)c1OC(C)(C)C(=O)O [compound 31, 1-(2,3,4,5,6-Pentamethylphenyl)-3-(4-carboxydimethylmethyloxy-3,5-dimethylphenyl)prop-2-en-1-one]
kinetics of LDL oxidation (lag phase) ([1]; FIG. 5a, no control value printed): 124.5 min
LDL oxidation rate ([1]; FIG. 5b, absence of compounds 2): 1.4 nmol/min/mg
total amount of dienes formed ([1]; FIG. 5c, absence of compounds 386): 352 nmol/mg
capacity of treated dendritic cells to induce proliferation of naive CD4+ T cells [5]: lower capacity

Induction factor ([6]; 1 μM): 8.83
Induction factor ([6]; 10 μM): 18.49
Induction factor ([7]; 0.01 μM): 1.31
Induction factor ([7]; 0.03 μM): 1.18
Induction factor ([7]; 0.1 μM): 1.73
Induction factor ([7]; 0.3 μM): 4.58
Induction factor ([7]; 1 μM): 9.50
Induction factor ([7]; 3 μM): 16.64
Induction factor ([7]; 10 μM): 31.00
Structure (SMILES): CCCCCSCCOc1ccc(C(=O)/C=C/c2cc(C)c(OC(C)(C)C(=O)O)c(C)c2)cc1 [compound 2, 1-(4-(Pentylthioethyloxy)phenyl)-3-(4-carboxydimethylmethyloxy-3,5-dimethylphenyl)prop-2-en-1-one]
lag phase of conjugated diene formation ([1]; FIG. 1a, copper alone 120 minutes): 314 min
rate of diene formation ([1]; FIG. 1b, copper alone 1.8): 0.1 nmol/min/mg of LDL
maximum amount of conjugated dienes formed ([1]; FIG. 1c, copper alone 372): 35 nmol/mg
decrease in the amount of conjugated dienes formed ([1]; FIG. 1c, versus copper alone): 90%
plasma cholesterol [8]: decrease
plasma triglycerides [8]: decrease

Reference: patent US7547729B2, “1,3-diphenylprop-2-en-1-one derivative compounds, preparation method thereof and uses of same” (Genfit, priority 2004, dated 2009)
